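These data come from cells grown in 96-well plates and exposed to compound for 48 hours at five concentrations. GI50 = concentration required for 50% inhibition of growth.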 The source made the active and inactive calls. Cut-off read from the data, not from the text of the source: active = GI50 up to about 1.1 µM and inactive = higher.
Key:
Test in all cases: NCI-60 cell line screen, 48 h
SK-MEL-28 = tested on: SK-MEL-28
ACHN = tested on: ACHN
SK-MEL-5 = tested on: SK-MEL-5
SR = tested on: SR
HL-60 = tested on: HL-60
A549 = tested on: A549
HCT-116 = tested on: HCT-116
SK-MEL-2 = tested on: SK-MEL-2
OVCAR-4 = tested on: OVCAR-4
SK-OV-3 = tested on: SK-OV-3
UACC-257 = tested on: UACC-257
SF-268 = tested on: SF-268
HCC 2998 = tested on: HCC 2998
DU-145 = tested on: DU-145
A498 = tested on: A498
RPMI-8226 = tested on: RPMI-8226
PC-3 = tested on: PC-3
CCRF-CEM = tested on: CCRF-CEM
SNB-75 = tested on: SNB-75
M14 = tested on: M14
SN12C = tested on: SN12C
MOLT-4 = tested on: MOLT-4
SF-539 = tested on: SF-539
BT-549 = tested on: BT-549
IGROV-1 = tested on: IGROV-1
T47D = tested on: T47D
OVCAR-8 = tested on: OVCAR-8
786-0 = tested on: 786-0
OVCAR-3 = tested on: OVCAR-3
Malme-3M = tested on: Malme-3M
SW-620 = tested on: SW-620
NCI-H460 = tested on: NCI-H460
KM12 = tested on: KM12
SF-295 = tested on: SF-295
EKVX = tested on: EKVX
NCI-H226 = tested on: NCI-H226
Hs-578T = tested on: Hs-578T
HOP-92 = tested on: HOP-92
RXF 393 = tested on: RXF 393
U-251 = tested on: U-251
MCF7 = tested on: MCF7
UO-31 = tested on: UO-31
HOP-62 = tested on: HOP-62
HT-29 = tested on: HT-29
NCI-H522 = tested on: NCI-H522
K562 = tested on: K562
SNB-19 = tested on: SNB-19
MDA-MB-231 = tested on: MDA-MB-231
UACC-62 = tested on: UACC-62
TK-10 = tested on: TK-10
COLO 205 = tested on: COLO 205
NCI-H23 = tested on: NCI-H23
LOX IMVI = tested on: LOX IMVI
CAKI-1 = tested on: CAKI-1
NCI/ADR-RES = tested on: NCI/ADR-RES
MDA-N = tested on: MDA-N
MDA-MB-435 = tested on: MDA-MB-435
OVCAR-5 = tested on: OVCAR-5
HCT-15 = tested on: HCT-15

`S=c1sc2nc(Cl)nc(Cl)c2s1` was tested, and the GI50 (SK-MEL-28) was 16100 nM (inactive), the GI50 (ACHN) was 13900 nM (inactive) and the GI50 (SK-MEL-5) was 8730 nM (inactive). The GI50 (SR) was 1040 nM (active), the GI50 (HL-60) was 442 nM (active) and the GI50 (A549) was 19000 nM (inactive). For the same compound, the GI50 (HCT-116) was 11900 nM (inactive), the GI50 (SK-MEL-2) was 11400 nM (inactive) and the GI50 (OVCAR-4) was 16600 nM (inactive). For the same compound, the GI50 (SK-OV-3) was 17700 nM (inactive), the GI50 (UACC-257) was 15300 nM (inactive) and the GI50 (SF-268) was 14800 nM (inactive). For the same compound, the GI50 (HCC 2998) was 15300 nM (inactive), the GI50 (DU-145) was 16000 nM (inactive) and the GI50 (A498) was 18000 nM (inactive). For the same compound, the GI50 (RPMI-8226) was 1680 nM (inactive), the GI50 (PC-3) was 12400 nM (inactive) and the GI50 (CCRF-CEM) was 598 nM (active). For the same compound, the GI50 (SNB-75) was 17300 nM (inactive), the GI50 (M14) was 4160 nM (inactive) and the GI50 (SN12C) was 14500 nM (inactive). The GI50 (MOLT-4) was 822 nM (active), the GI50 (SF-539) was 20600 nM (inactive) and the GI50 (BT-549) was 8870 nM (inactive). The GI50 (IGROV-1) was 13800 nM (inactive), the GI50 (T47D) was 7060 nM (inactive) and the GI50 (OVCAR-8) was 9330 nM (inactive). For the same compound, the GI50 (786-0) was 6210 nM (inactive), the GI50 (OVCAR-3) was 10300 nM (inactive) and the GI50 (Malme-3M) was 8830 nM (inactive). For the same compound, the GI50 (SW-620) was 6850 nM (inactive), the GI50 (NCI-H460) was 14200 nM (inactive) and the GI50 (KM12) was 7850 nM (inactive). The GI50 (SF-295) was 16700 nM (inactive), the GI50 (EKVX) was 16900 nM (inactive) and the GI50 (NCI-H226) was 17500 nM (inactive). For the same compound, the GI50 (Hs-578T) was 24000 nM (inactive), the GI50 (HOP-92) was 5240 nM (inactive) and the GI50 (RXF 393) was 12000 nM (inactive). The GI50 (U-251) was 7800 nM (inactive), the GI50 (MCF7) was 8490 nM (inactive) and the GI50 (UO-31) was 11100 nM (inactive). The GI50 (HOP-62) was 19900 nM (inactive), the GI50 (HT-29) was 8240 nM (inactive) and the GI50 (NCI-H522) was 6840 nM (inactive). The GI50 (K562) was 4240 nM (inactive), the GI50 (SNB-19) was 17900 nM (inactive) and the GI50 (MDA-MB-231) was 9020 nM (inactive). The GI50 (UACC-62) was 13000 nM (inactive), the GI50 (TK-10) was 13600 nM (inactive) and the GI50 (COLO 205) was 7180 nM (inactive). The GI50 (NCI-H23) was 16900 nM (inactive), the GI50 (LOX IMVI) was 9140 nM (inactive) and the GI50 (CAKI-1) was 7520 nM (inactive). The GI50 (NCI/ADR-RES) was 11000 nM (inactive), the GI50 (MDA-N) was 7980 nM (inactive) and the GI50 (MDA-MB-435) was 7940 nM (inactive). The GI50 (OVCAR-5) was 15700 nM (inactive) and the GI50 (HCT-15) was 13200 nM.

`CC1OC(OC2C(O[C@@H]3C[C@@H]4CC[C@@H]5[C@H](CC[C@]6(C)C7C(C[C@@H]56)O[C@]5(CC[C@@H](C)CO5)[C@H]7C)[C@@]4(C)C[C@H]3O)OC(CO)C(O)C2O)C(O)C(O)C1O` (stereo partly drawn) was tested, and the GI50 (SK-MEL-28) was 1850 nM (inactive), the GI50 (ACHN) was 1750 nM (inactive) and the GI50 (SK-MEL-5) was 2090 nM (inactive). The GI50 (SR) was 2160 nM (inactive), the GI50 (HL-60) was 2060 nM (inactive) and the GI50 (A549) was 1860 nM (inactive). For the same compound, the GI50 (HCT-116) was 1810 nM (inactive), the GI50 (SK-MEL-2) was 1780 nM (inactive) and the GI50 (OVCAR-4) was 2230 nM (inactive). The GI50 (SK-OV-3) was 1890 nM (inactive), the GI50 (UACC-257) was 1860 nM (inactive) and the GI50 (SF-268) was 1910 nM (inactive). For the same compound, the GI50 (HCC 2998) was 1820 nM (inactive), the GI50 (DU-145) was 1840 nM (inactive) and the GI50 (A498) was 2300 nM (inactive). The GI50 (RPMI-8226) was 2280 nM (inactive), the GI50 (PC-3) was 1760 nM (inactive) and the GI50 (CCRF-CEM) was 1930 nM (inactive). For the same compound, the GI50 (SNB-75) was 2240 nM (inactive), the GI50 (M14) was 1790 nM (inactive) and the GI50 (SN12C) was 1710 nM (inactive). For the same compound, the GI50 (MOLT-4) was 1860 nM (inactive), the GI50 (SF-539) was 1640 nM (inactive) and the GI50 (BT-549) was 1930 nM (inactive). For the same compound, the GI50 (IGROV-1) was 1730 nM (inactive), the GI50 (T47D) was 2140 nM (inactive) and the GI50 (OVCAR-8) was 1860 nM (inactive). For the same compound, the GI50 (786-0) was 1820 nM (inactive), the GI50 (OVCAR-3) was 1800 nM (inactive) and the GI50 (Malme-3M) was 1820 nM (inactive). For the same compound, the GI50 (SW-620) was 1930 nM (inactive), the GI50 (NCI-H460) was 1920 nM (inactive) and the GI50 (KM12) was 2320 nM (inactive). For the same compound, the GI50 (SF-295) was 1830 nM (inactive), the GI50 (EKVX) was 1920 nM (inactive) and the GI50 (NCI-H226) was 2840 nM (inactive). For the same compound, the GI50 (Hs-578T) was 2540 nM (inactive), the GI50 (HOP-92) was 2800 nM (inactive) and the GI50 (RXF 393) was 2150 nM (inactive). The GI50 (U-251) was 1680 nM (inactive), the GI50 (MCF7) was 1850 nM (inactive) and the GI50 (UO-31) was 1780 nM (inactive). For the same compound, the GI50 (HOP-62) was 2000 nM (inactive), the GI50 (HT-29) was 1620 nM (inactive) and the GI50 (NCI-H522) was 1890 nM (inactive). For the same compound, the GI50 (K562) was 1890 nM (inactive), the GI50 (SNB-19) was 2410 nM (inactive) and the GI50 (MDA-MB-231) was 1780 nM (inactive). The GI50 (UACC-62) was 1740 nM (inactive), the GI50 (TK-10) was 1760 nM (inactive) and the GI50 (COLO 205) was 1850 nM (inactive). For the same compound, the GI50 (NCI-H23) was 1820 nM (inactive), the GI50 (LOX IMVI) was 1780 nM (inactive) and the GI50 (CAKI-1) was 2060 nM (inactive). For the same compound, the GI50 (NCI/ADR-RES) was 1940 nM (inactive), the GI50 (MDA-N) was 2470 nM (inactive) and the GI50 (MDA-MB-435) was 1800 nM (inactive). For the same compound, the GI50 (OVCAR-5) was 1570 nM (inactive) and the GI50 (HCT-15) was 1870 nM.
